Laboratory results taken from PubChem BioAssay (NCI).
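Five concentrations, 48 hours, 96-well plates. Abbreviation: GI50, concentration required for 50% inhibition of growth. TGI: total growth inhibition.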

Columns and labels:
Assay in all cases: DTP human tumour cell line panel, 48 h
[1] = system: NCI-H23 lung
[2] = system: SF-268 CNS
[3] = system: MDA-MB-231 breast
[4] = system: OVCAR-3 ovarian
[5] = system: HCT-15 colon
[6] = system: SW-620 colon
[7] = system: A549 NSCLC
[8] = system: PC-3 prostate
[9] = system: A498 renal
[10] = system: HL-60(TB) leukemia
[11] = system: HT29 colon
[12] = system: IGROV1 ovarian
[13] = system: ACHN renal
[14] = system: SK-MEL-2 melanoma
[15] = system: HOP-62 NSCLC
[16] = system: UACC-257 melanoma
[17] = system: M14 melanoma
[18] = system: MCF7 breast
[19] = system: LOX IMVI melanoma
[20] = system: NCI-H460 lung
[21] = system: SK-MEL-28 melanoma
[22] = system: SNB-19 CNS
[23] = system: MALME-3M melanoma
[24] = system: SF-295 CNS
[25] = system: BT-549 breast
[26] = system: CCRF-CEM leukemia
[27] = system: CAKI-1 renal
[28] = system: NCI-H226 lung
[29] = system: 786-0 renal
[30] = system: DU-145 prostate
[31] = system: SK-OV-3 ovarian
[32] = system: UO-31 renal
[33] = system: SN12C renal
[34] = system: T-47D breast
[35] = system: OVCAR-8 ovarian
[36] = system: HCC-2998 colon
[37] = system: HCT-116 colon
[38] = system: SR leukemia
[39] = system: OVCAR-5 ovarian
[40] = system: NCI/ADR-RES ovarian
[41] = system: COLO 205 colon
[42] = system: SF-539 CNS
[43] = system: EKVX NSCLC
[44] = system: RXF 393 renal
[45] = system: UACC-62 melanoma
[46] = system: HOP-92 NSCLC
[47] = system: MOLT-4 leukemia
[48] = system: OVCAR-4 ovarian
[49] = system: NCI-H522 lung
[50] = system: MDA-MB-435
[51] = system: K-562 leukemia
[52] = system: HS 578T breast
[53] = system: TK-10 renal
[54] = system: U251 CNS
[55] = system: SK-MEL-5 melanoma
[56] = system: KM12 colon

## O=C(Nc1cccc(Cl)c1)c1ccc(NC2=C(Cl)C(=O)N(Cc3ccccc3)C2=O)cc1
[1]
  GI50: 13.6 µM
  TGI: 27 µM
[2]
  GI50: 8.93 µM
  TGI: 25.3 µM
[3]
  GI50: 8.08 µM
  TGI: 31.9 µM
[4]
  GI50: 6.08 µM
  TGI: 13.8 µM
[5]
  GI50: 1.98 µM
  TGI: 4.76 µM
[6]
  GI50: 7.4 µM
  TGI: 19.7 µM
[7]
  GI50: 33.3 µM
  TGI: > 100 µM
[8]
  GI50: 9.48 µM
  TGI: 24.1 µM
[9]
  GI50: 34.4 µM
  TGI: 96.2 µM
[10]
  GI50: 3.79 µM
  TGI: 15.2 µM
[11]
  GI50: 8.43 µM
  TGI: > 100 µM
[12]
  GI50: 9.95 µM
  TGI: > 62.6 µM
[13]
  GI50: 17.6 µM
  TGI: > 53.4 µM
[14]
  GI50: 18.9 µM
  TGI: > 100 µM
[15]
  GI50: 18.2 µM
  TGI: 33 µM
[16]
  GI50: 21.3 µM
  TGI: 49.7 µM
[17]
  GI50: 16.6 µM
  TGI: 37.3 µM
[18]
  GI50: 3.19 µM
  TGI: 12.2 µM
[19]
  GI50: 4.24 µM
  TGI: 9.27 µM
[20]
  GI50: 9.11 µM
  TGI: > 50.9 µM
[21]
  GI50: 14.4 µM
  TGI: 31.7 µM
[22]
  GI50: 21.5 µM
  TGI: > 59.2 µM
[23]
  GI50: 24 µM
  TGI: 78.5 µM
[24]
  GI50: 17.7 µM
  TGI: 56.9 µM
[25]
  GI50: 8.33 µM
  TGI: 31.5 µM
[26]
  GI50: 0.436 µM
  TGI: 1.44 µM
[27]
  GI50: 14.7 µM
  TGI: 50.8 µM
[28]
  GI50: 14.8 µM
  TGI: 31 µM
[29]
  GI50: 8.61 µM
  TGI: 19.7 µM
[30]
  GI50: 8.37 µM
  TGI: 19.2 µM
[31]
  GI50: 43.6 µM
  TGI: > 95.5 µM
[32]
  GI50: > 26.3 µM
  TGI: > 100 µM
[33]
  GI50: 7.77 µM
  TGI: 23 µM
[34]
  GI50: 17.8 µM
  TGI: > 54.4 µM
[35]
  GI50: 11.5 µM
  TGI: 27.3 µM
[36]
  GI50: 1.68 µM
  TGI: 3.83 µM
[37]
  GI50: 6.31 µM
  TGI: 17.2 µM
[38]
  GI50: 1.39 µM
  TGI: 3.82 µM
[39]
  GI50: 24.8 µM
  TGI: > 61.6 µM
[40]
  GI50: 9.53 µM
  TGI: 24.9 µM
[41]
  GI50: 22.1 µM
  TGI: > 57 µM
[42]
  GI50: 20.4 µM
  TGI: 36.3 µM
[43]
  GI50: > 46 µM
  TGI: > 69.3 µM
[44]
  GI50: 9.55 µM
  TGI: 24.7 µM
[45]
  GI50: 11.6 µM
  TGI: 25.4 µM
[46]
  GI50: 9.09 µM
  TGI: 29.5 µM
[47]
  GI50: 1.67 µM
  TGI: 4.89 µM
[48]
  GI50: 19.4 µM
  TGI: > 61.7 µM
[49]
  GI50: 5.6 µM
  TGI: > 44.6 µM
[50]
  GI50: 9.43 µM
  TGI: 33.6 µM
[51]
  GI50: 2.58 µM
  TGI: 8.69 µM
[52]
  GI50: 18.6 µM
  TGI: 48.5 µM
[53]
  GI50: 16.4 µM
  TGI: 49.5 µM
[54]
  GI50: 15.5 µM
  TGI: > 48.1 µM
[55]
  GI50: 7.81 µM
  TGI: 19.4 µM
[56]
  GI50: > 38.3 µM
  TGI: > 56.2 µM
